# Reference: patent US20240165281A1, “DUAL MODE RADIOTRACER AND THERAPEUTICS” (Technische Universität München, priority 2021, published 2024)
# Experiments:
# [1] = Octanol-water partition coefficient (log D7.4); assay type: physicochemical; details: PBS pH 7.4 / n-octanol, 177Lu-labelled
# Protocol: Octanol-Water Partition Coefficient (log D7.4)
# Approximately 1 MBq of the labelled tracer was dissolved in 1 mL of a 1:1 mixture (v/v) of PBS (pH 7.4) and n-octanol in a reaction vial (1.5 mL). After vigorous mixing of the suspension for 3 minutes at room temperature, the vial was centrifuged at 15000 g for 3 minutes (Biofuge 15, Heraus Sepatech, Osterode, Germany) and 100 μL aliquots of both layers were measured in a gamma counter. The experiment was repeated at least six times.
# [2] = molecular target: T1, Human Serum Albumin (HSA) (Homo sapiens, UniProt P02768); test: Human serum albumin (HSA) binding by high performance affinity chromatography (HPAC); assay type: in vitro ADME; details: Chiralpak HSA column
# T1 construct: purchased Daicel H13H-2433
# T1 sequence (P02768 25-609): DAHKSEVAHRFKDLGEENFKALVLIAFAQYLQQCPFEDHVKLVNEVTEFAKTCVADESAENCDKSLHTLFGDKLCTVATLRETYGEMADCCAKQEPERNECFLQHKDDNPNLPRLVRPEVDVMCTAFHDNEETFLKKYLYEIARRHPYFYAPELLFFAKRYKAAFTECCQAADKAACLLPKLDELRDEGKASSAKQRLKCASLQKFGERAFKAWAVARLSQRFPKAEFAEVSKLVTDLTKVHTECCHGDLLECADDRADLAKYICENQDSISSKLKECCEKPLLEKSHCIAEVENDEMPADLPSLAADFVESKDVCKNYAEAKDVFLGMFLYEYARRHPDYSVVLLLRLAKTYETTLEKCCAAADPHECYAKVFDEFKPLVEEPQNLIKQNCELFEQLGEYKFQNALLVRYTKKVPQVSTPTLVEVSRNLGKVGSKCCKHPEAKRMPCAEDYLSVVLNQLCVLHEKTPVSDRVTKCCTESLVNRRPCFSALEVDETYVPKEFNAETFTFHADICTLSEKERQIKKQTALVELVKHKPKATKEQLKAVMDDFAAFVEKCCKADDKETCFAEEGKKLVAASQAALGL
# Protocol: Determination of Human Serum Albumin (HSA) Binding by High Performance Affinity Chromatography (HPAC)
# HSA binding of the PSMA-addressing ligands was determined according to a previously published procedure via HPLC (Valko, K.; Nunhuck, S.; Bevan, C.; Abraham, M. H.; Reynolds, D. P. Journal of pharmaceutical sciences 2003, 92, 2236-2248). A Chiralpak HSA column (50×3 mm, 5 μm, H13H-2433, Daicel, Tokyo, Japan) was used at a constant flow rate of 0.5 mL/min at rt. Mobile phase A was a freshly prepared 50 mM aqueous solution of NH4OAc (pH 6.9) and mobile phase B was isopropanol (HPLC grade, VWR). The applied gradient for all experiments was 100% A (0 to 3 min), followed by 80% A (3 to 40 min). Prior to the experiment, the column was calibrated using nine reference substances with a HSA binding, known from literature, in the range of 13 to 99% (Valko, K.; Nunhuck, S.; Bevan, C.; Abraham, M. H.; Reynolds, D. P. Journal of pharmaceutical sciences 2003, 92, 2236-2248; Yamazaki, K.; Kanaoka, M. Journal of Pharmaceutical sciences 2004, 93, 1480-1494). All substances, including the examined PSMA ligands, were dissolved in a 1:1 mixture (v/v) of isopropanol and a 50 mM aqueous solution of NH4OAc (pH6.9) with a final concentration of 0.5 mg/mL. Non-linear regression was established with the OriginPro 2016G software (Northampton, United States) (FIG. 8).
# LNCaP tumor-bearing mice = test: μSPECT/CT imaging with tumor uptake; assay type: in vivo
# Protocol: Static images were recorded of sacrificed mice, 24 h p.i. directly after blood collection, with an acquisition time of 45 min using the HE-GP-RM collimator and a step-wise multi-planar bed movement. For imaging studies, a MILabs VECTor4 small-animal SPECT/PET/OI/CT from MILabs (Utrecht, Netherlands) was applied. Furthermore, data were reconstructed using the MILabs-Rec software (version 10.02) and a pixel-based Similarity-Regulated Ordered Subsets Expectation Maximization (SROSEM) algorithm with a window-based scatter correction (20% below and 20% above the photopeak, respectively). Moreover, further data analysis was accomplished using the PMOD4.0 software acquired from PMOD TECHNOLOGIES LLC (Zurich, Switzerland) at defined settings (voxel size CT: 80 μm, voxel size SPECT: 0.8 mm, 1.6 mm (FWHM) Gaussian blurring post processing filter, with calibration factor in kBq/mL and decay correction and no attenuation correction).
smiles,measurement,setting,value
CC(C)(C)[Si](F)(c1ccc(C(=O)NC[C@@H](NC(=O)CN2CCN(CC(=O)O)CCN(CC(=O)O)CCN(CC(=O)O)CC2)C(=O)N[C@H](CO)C(=O)NCCC(=O)NCCC(=O)NCCC[C@@H](NC(=O)CC[C@H](NC(=O)N[C@@H](CCC(=O)O)C(=O)O)C(=O)O)C(=O)O)cc1)C(C)(C)C [Compound 2C013],logD7.4,[1],−3.30 ± 0.06
same,HSA (HPAC),[2],88.6%
same,"kidney uptake (FIG. 5, in words)","LNCaP tumor-bearing mice; 24 h p.i., versus [177Lu]rhPSMA-7.3 and [177Lu]PSMA-I&T",lower kidney uptake than the previously known compounds
same,tumor uptake of the scanned mouse (FIG. 1),"LNCaP tumor-bearing mice; μSPECT/CT scan, single animal",9.8 % iD/g
